Source: US11279733B2, “Peptide antibiotics” (priority 2017, dated 2022)
In brackets after ≈: the same amount, converted by molar mass. Positions of bridges follow the written chain, without caps; N, C: chain ends. Non-standard residues stand in square brackets, D forms with d. Residues, ends and D or L forms follow the SMILES beside them. *: point of attachment. Decanoyl(3R-OH) = CCCCCCC[C@@H](O)CC(=O)*; dPhe(4-NH2) = Nc1ccc(C[C@@H](N)C(=O)O)cc1; d3Pal = N[C@H](Cc1cccnc1)C(=O)O; dOrn = NCCC[C@@H](N)C(=O)O; dDab = NCC[C@@H](N)C(=O)O; Octanoyl = CCCCCCCC(=O)*; Dab = NCC[C@H](N)C(=O)O

Experiments:
A. baumannii ATCC 19606 = conditions: ATCC 19606
Outline: (§1)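 Mid-log cultures grown in Mueller Hinton broth at 37° C were tested by 2-fold broth microdilution at 5×10^5 CFU/mL final. Compounds were dissolved in water and tested over a final range of 32 to 0.015 μg/mL.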

A. baumannii GN_093 PmxR = conditions: GN 093 PmxR
Outline: as §1

E. coli ATCC 25922 = conditions: ATCC 25922
Outline: as §1

K. pneumoniae ATCC 13883 = conditions: ATCC 13883
Outline: as §1

[1] = test system: K. pneumoniae ATCC 700603, MDR; conditions: ATCC 700603
Outline: as §1

[2] = test system: K. pneumoniae ATCC BAA-2146, NDM-1 pos; conditions: ATCC BAA-2146
Outline: as §1

[3] = test system: K. pneumoniae GN_102 PmxR; conditions: GN 102 PmxR
Outline: as §1

[4] = test system: K. pneumoniae GN_106, PmxR; conditions: GN 106, PmxR
Outline: as §1

P. aeruginosa ATCC 27853 = conditions: ATCC 27853
Outline: as §1

[5] = test system: P. aeruginosa GN_043, PmxR; conditions: P. aeruginosa GN_043, PmxR
Outline: as §1

[6] = test system: P. aeruginosa GN_105, PmxR; conditions: GN 105, PmxR
Outline: as §1

[7] = test system: S. aureus ATCC 25923, MSSA; conditions: ATCC 25923
Outline: as §1

in vitro = conditions: human
Outline: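 HK2 cells were seeded at 2000 per well in DMEM/F12 with 10% FBS and left to attach for 24 h at 37 °C, 5% CO2. They were then exposed for 24 h to 3-fold peptide dilutions starting from 600 μM solutions in quadruplicate. LDH release was read at 450 nm, and CC50 was fitted from dose-response curves.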

SMILES | MIC A. baumannii ATCC 19606 (A. baumannii ATCC 19606) | MIC A. baumannii GN_093 PmxR (A. baumannii GN_093 PmxR) | MIC E. coli ATCC 25922 (E. coli ATCC 25922) | MIC K. pneumoniae ATCC 13883 (K. pneumoniae ATCC 13883) | MIC K. pneumoniae ATCC 700603, MDR [1] | MIC K. pneumoniae ATCC BAA-2146, NDM-1 pos [2] | MIC K. pneumoniae GN_102 PmxR [3] | MIC K. pneumoniae GN_106, PmxR [4] | MIC P. aeruginosa ATCC 27853 (P. aeruginosa ATCC 27853) | MIC P. aeruginosa GN_043, PmxR [5] | MIC P. aeruginosa GN_105, PmxR [6] | MIC S. aureus ATCC 25923, MSSA [7] | CC50 at 24 h (in vitro)
CCCCCCC[C@@H](O)CC(=O)N[C@H](CCCN)C(=O)N[C@H]1CCNC(=O)[C@H]([C@@H](C)O)NC(=O)[C@H](CCN)NC(=O)[C@H](CCN)NC(=O)[C@H](CC(C)C)NC(=O)[C@@H](Cc2ccccc2)NC(=O)[C@H](CCN)NC1=O [compound 6396, 3(R)OH-nC9CO-D-Orn-cyc[L-Dab-L-Dab-D-Phe-L-Leu-L-Dab-L-Dab-L-Thr]] ({Decanoyl(3R-OH)}-[dOrn][Dab][Dab][dF]L[Dab][Dab]T; lactam 2-C) | >64 µg/mL | >32 µg/mL | 16 µg/mL (≈ 15.3 µM) | >64 µg/mL | 16 µg/mL (≈ 15.3 µM) | 32 µg/mL (≈ 30.6 µM) | >32 µg/mL | >32 µg/mL | 16 µg/mL (≈ 15.3 µM) | 16 µg/mL (≈ 15.3 µM) | 16 µg/mL (≈ 15.3 µM) | >32 µg/mL | > 300 µM
CCCCCCC[C@@H](O)CC(=O)N[C@H](Cc1ccc(N)cc1)C(=O)N[C@H]1CCNC(=O)[C@H]([C@@H](C)O)NC(=O)[C@H](CCN)NC(=O)[C@H](CCN)NC(=O)[C@H](CC(C)C)NC(=O)[C@@H](Cc2ccccc2)NC(=O)[C@H](CCN)NC1=O [compound 6397, 3(R)OH-nC9CO-D-4NH2Phe-cyc[L-Dab-L-Dab-D-Phe-L-Leu-L-Dab-L-Dab-L-Thr]] ({Decanoyl(3R-OH)}-[dPhe(4-NH2)][Dab][Dab][dF]L[Dab][Dab]T; lactam 2-C) | >64 µg/mL | >32 µg/mL | >64 µg/mL | >64 µg/mL | >64 µg/mL | >64 µg/mL | >32 µg/mL | >32 µg/mL | >64 µg/mL | >32 µg/mL | >32 µg/mL | >32 µg/mL | > 300 µM
CCCCCCC[C@@H](O)CC(=O)N[C@H](Cc1cccnc1)C(=O)N[C@H]1CCNC(=O)[C@H]([C@@H](C)O)NC(=O)[C@H](CCN)NC(=O)[C@H](CCN)NC(=O)[C@H](CC(C)C)NC(=O)[C@@H](Cc2ccccc2)NC(=O)[C@H](CCN)NC1=O [compound 6398, 3(R)OH-nC9CO-D-3PyPhe-cyc[L-Dab-L-Dab-D-Phe-L-Leu-L-Dab-L-Dab-L-Thr]] ({Decanoyl(3R-OH)}-[d3Pal][Dab][Dab][dF]L[Dab][Dab]T; lactam 2-C) | >64 µg/mL | >32 µg/mL | >64 µg/mL | >64 µg/mL | >64 µg/mL | >64 µg/mL | 32 µg/mL (≈ 29.6 µM) | >32 µg/mL | 32 µg/mL (≈ 29.6 µM) | >32 µg/mL | >32 µg/mL | >32 µg/mL | > 300 µM
CCCCCCCC(=O)N[C@H](CCN)C(=O)N[C@H]1CCNC(=O)[C@H]([C@@H](C)O)NC(=O)[C@H](CCN)NC(=O)[C@H](CCN)NC(=O)[C@H](CC(C)C)NC(=O)[C@@H](Cc2ccccc2)NC(=O)[C@H](CCN)NC1=O [compound 6399, nC7CO-D-Dab-cyc[L-Dab-L-Dab-D-Phe-L-Leu-L-Dab-L-Dab-L-Thr]] (Octanoyl-[dDab][Dab][Dab][dF]L[Dab][Dab]T; lactam 2-C) | >32 µg/mL | >32 µg/mL | 8 µg/mL (≈ 8.1 µM) | >32 µg/mL | 16 µg/mL (≈ 16.2 µM) | >32 µg/mL | >32 µg/mL | >32 µg/mL | 1 µg/mL (≈ 1.01 µM) | 8 µg/mL (≈ 8.1 µM) | >32 µg/mL | >32 µg/mL | > 300 µM
